Source: PMC6778101 (Nature Communications, 2019)
Where two headings read alike, the source gives them in different places. Ends that are not written are not given here.

How the values were obtained:
Format in all cases: cell-based, Escherichia coli
E. coli K-12 BW25113 [1] = test: microbe, parasite or virus in culture
Excerpt: Unless otherwise indicated, Minimal Salt (MS) medium was used in all experiments, including the laboratory evolution experiments. In line with previous, methodologically relevant laboratory evolution studies, the physical conditions (including the medium) were the same during the course of laboratory evolution and all forthcoming assays on the resulting resistant lines (e.g. MIC measurements). We previously optimized this medium for studying AMPs (1 g L^−1 (NH4)2SO4, 3 g L^−1 KH2PO4 and 7 g L^−1 K2HPO4 supplemented with 0.1 mM MgSO4, 0.54 µg mL^−1 FeCl3, 1 µg mL^−1 thiamine hydrochloride, 0.2% Casamino acids and 0.2% glucose)[19]. This medium is highly controlled and provides a reproducible environment for experimental evolution experiments. All components were obtained from Sigma-Aldrich.
MICs were determined using a standard serial broth dilution technique. Briefly, 11-step serial dilutions were prepared in 96-well microtiter plates with three replicates per strain and antimicrobial compound. Each experiment was repeated at least twice. 5 × 10^5 cells/mL were inoculated into each well, and the plates were incubated at 30 °C in case of E. coli K-12 BW25113, and its antibiotic and AMP-adapted lines, or 37 °C in case of the other bacterial species. […] Cell growth was monitored by measuring the optical density (OD600 value, Biotek Synergy 2 microplate reader was used for this purpose). […] Relative MIC was calculated as follows: MICrelative = MICevolved/MICcontrol.

[2] = tested on: E. coli K-12 BW25113 carrying ASKA plasmids; test: microbe, parasite or virus in culture; settings: MS medium + 10 µg mL−1 CHL + 500 µM IPTG, 5 × 10^5 cells, 16–18 h, 37 °C; for MIC: Escherichia coli
Excerpt: Bacterial gene amplification generates extensive genetic variation that can provide drug resistance[37],[38]. As gene amplification events tend to be genetically unstable and reduce bacterial fitness, they are transient in nature. Using the ASKA library, which comprises each E. coli ORF cloned into an expression vector[40], we have conducted a global survey to evaluate whether artificially amplified genes provide resistance to any of the 14 AMPs and 11 antibiotics tested. As chloramphenicol (CHL) was used as a selection marker for the ASKA plasmid, this antibiotic was not tested in this screen. E. coli K-12 BW25113 cells were transformed with the pooled plasmids of the ASKA library, and the genetically mixed populations were exposed to increasing levels of AMP or antibiotic stresses, respectively. In all cases, the employed AMP or antibiotic dosages were above the MIC of the wild type. For each drug, we identified the MIC provided in the pooled ASKA plasmid library, and compared it to the MIC of the wild-type strain carrying the empty ASKA plasmid.
The ASKA library (a complete set of E. coli K-12 ORF archive) includes every E. coli ORF cloned into an expression vector (pCA24N)[65]. Prior to screening, the ASKA plasmid collection was pooled and transformed into E. coli K-12 BW25113 strain[66]. The plasmid pool was created by pooling an equal aliquot of cells, each carrying different members of the ASKA library, followed by plasmid miniprep. Next, the plasmid pool was electroporated into E. coli K-12 BW25113 competent cells. […] For the MICs measurements 500 000 cells were inoculated in each well which represents ~100 times coverage of each library member. […] Prior to the measurements the cell population containing the pooled overexpression library or the control strain containing the empty vector were grown in three replicates in LB medium supplemented with 20 µg/mL CHL. As the culture reached high density (i.e., OD600 > 0.8), expression of the plasmid was induced by 50 µM IPTG for 1 h. Following induction, 5 × 10^5 bacterial cells were inoculated in three replicates into each well of the 96-well plate and incubated for 16–18 h at 37 °C. Following incubation the MIC values were determined by measuring optical densities in a plate reader (Biotek Synergy).

E. coli K-12 BW25113 [3] = test: Laboratory evolution of resistance, MIC fold change of adapted lines; settings: ~120 generations under increasing drug concentration
Excerpt: Our first goal was to study resistance evolution against a set of AMPs and antibiotics. We have followed established protocols with minor modifications to evolve bacterial populations under controlled laboratory conditions[19],[20]. The applied protocol aims to maximize the level of drug resistance in the evolving populations achieved during a fixed time period. We have initiated a laboratory evolution experiment, starting with a single clone of Escherichia coli K-12 BW25113 (abbreviated as E. coli K-12 BW25113). Parallel evolving populations were exposed to increasing concentrations of one of 14 AMPs (Supplementary Table 1). Peptides were chosen based on the following criteria: diverse sources (synthetic/natural), different putative mechanisms of action, structural diversity, and clinical relevance. Another set of populations were exposed to one of 12 clinically relevant antibiotics (Supplementary Table 2), using the same protocol. Accordingly, we have propagated 10 independent populations in the presence of each AMP or antibiotic for ∼120 generations. We isolated a single, representative clone from each population, resulting in 140 AMP-adapted lines and 120 antibiotic-adapted lines. Throughout the paper, we compare the level of resistance in the evolved lines to the corresponding wild-type strain by measuring changes in the drugs’ minimum inhibitory concentrations (MIC).
The evolutionary protocol was designed to avoid population extinction and to ensure that populations with the highest level of resistance were propagated further. Starting with a subinhibitory drug concentration (Supplementary Data 8), resulting in ~50% growth inhibition, 10 parallel populations per drug were allowed to grow in Minimal Salts medium for 72 h and 300 r.p.m. E. coli K-12 BW25113 and E. coli mutD5 populations were incubated at 30 °C, while E. coli ATCC 25922, S. enterica LT2, K. pneumonia ATCC 10031, and A. baumannii ATCC 17978 were incubated at 37 °C. […] Prior to each transfer, cell growth was monitored by measuring the optical density at 600 nm (OD600 value, Biotek Synergy 2 microplate reader). Only populations with the highest drug concentration (and reaching OD600 > 0.2) were selected for further evolution. A chess-board layout was used on the plate to monitor potential cross-contamination events. […] E. coli mutD5 was adapted to TPII, also in 10 parallel evolving populations.
MICs were determined using a standard serial broth dilution technique. Briefly, 11-step serial dilutions were prepared in 96-well microtiter plates with three replicates per strain and antimicrobial compound. Each experiment was repeated at least twice. 5 × 10^5 cells/mL were inoculated into each well, and the plates were incubated at 30 °C in case of E. coli K-12 BW25113, and its antibiotic and AMP-adapted lines, or 37 °C in case of the other bacterial species. Plates were shaken at 300 r.p.m. during incubation for 24 and 18 h, respectively. Cell growth was monitored by measuring the optical density (OD600 value, Biotek Synergy 2 microplate reader was used for this purpose). […] Relative MIC was calculated as follows: MICrelative = MICevolved/MICcontrol.

[4] = Escherichia coli, BW25113, 24 h, read-out: MIC
[5] = BW25113, Replicate 1, read-out: MIC value of E. coli K-12 BW25113 carrying the empty plasmid of the ASKA library
[6] = BW25113, Replicate 1, read-out: MIC value of E. coli K-12 BW25113 carrying the pooled plasmids of the ASKA library
[7] = BW25113, Replicate 2, read-out: MIC value of E. coli K-12 BW25113 carrying the empty plasmid of the ASKA library
[8] = BW25113, Replicate 2, read-out: MIC value of E. coli K-12 BW25113 carrying the pooled plasmids of the ASKA library
[9] = BW25113, Replicate 3, read-out: MIC value of E. coli K-12 BW25113 carrying the empty plasmid of the ASKA library
[10] = BW25113, Replicate 3, read-out: MIC value of E. coli K-12 BW25113 carrying the pooled plasmids of the ASKA library
[11] = starting wild-type strain of the evolution experiment, broth dilution, MS medium, 5 × 10^5 cells/mL, 30 °C, 24 h, MIC = OD600 < 0.05

Molecule | MIC (E. coli K-12 BW25113 [1]; [4]) [mg/L] | MIC [2, 5] [mg/L] | MIC [2, 6] [mg/L] | MIC [2, 7] [mg/L] | MIC [2, 8] [mg/L] | MIC [2, 9] [mg/L] | MIC [2, 10] [mg/L] | MIC (E. coli K-12 BW25113 [1]; Escherichia coli, BW25113, 24 h) [mg/L] | MIC (E. coli K-12 BW25113 [1]; [11]) [mg/L] | MIC value of E. coli K-12 BW25113 carrying the empty plasmid of the ASKA library ([2]; Replicate 1) [mg/L] | MIC value of E. coli K-12 BW25113 carrying the pooled plasmids of the ASKA library ([2]; Replicate 1) [mg/L] | MIC value of E. coli K-12 BW25113 carrying the empty plasmid of the ASKA library ([2]; Replicate 2) [mg/L] | MIC value of E. coli K-12 BW25113 carrying the pooled plasmids of the ASKA library ([2]; Replicate 2) [mg/L] | MIC value of E. coli K-12 BW25113 carrying the empty plasmid of the ASKA library ([2]; Replicate 3) [mg/L] | MIC value of E. coli K-12 BW25113 carrying the pooled plasmids of the ASKA library ([2]; Replicate 3) [mg/L] | resistance in evolved lines after laboratory evolution (in words) (E. coli K-12 BW25113 [3])
C[C@H]1c2cccc(O)c2C(=O)C2=C(O)[C@]3(O)C(=O)C(C(N)=O)=C(O)[C@@H](N(C)C)[C@@H]3[C@@H](O)[C@@H]21 [DOX, Doxycycline] | 1.5 | 0.56 | 1.59 | 0.43 | 1.59 | 0.56 | 1.59 |  |  |  |  |  |  |  |  | 
CC[C@H]1OC(=O)[C@H](C)[C@@H](O[C@H]2C[C@@](C)(OC)[C@@H](O)[C@H](C)O2)[C@H](C)[C@@H](O[C@@H]2O[C@H](C)C[C@H](N(C)C)[C@H]2O)[C@](C)(O)C[C@@H](C)C(=O)[C@H](C)[C@@H](O)[C@]1(C)O [ERY, Erythromycin] |  | 11 | 18.6 | 14.3 | 24.1 | 14.3 | 24.1 |  |  |  |  |  |  |  |  | 
CO[C@@]1(NC(=O)Cc2cccs2)C(=O)N2C(C(=O)O)=C(COC(N)=O)CS[C@@H]21 [FOX, Cefoxitin] | 4.9 | 6.07 | 69.2 | 6.07 | 69.2 | 6.07 | 69.2 |  |  |  |  |  |  |  |  | 
CCn1cc(C(=O)O)c(=O)c2ccc(C)nc21 [NAL, Nalidixic acid] | 6.35 | 0.37 | 1.05 | 0.37 | 1.05 | 0.37 | 1.05 |  |  |  |  |  |  |  |  | 
O=C1CN(/N=C/c2ccc([N+](=O)[O-])o2)C(=O)N1 [NIT, Nitrofurantoin] |  | 6.53 | 14.7 | 6.53 | 14.7 | 6.53 | 6.53 | 35 |  |  |  |  |  |  |  | 
CN(C)[C@@H]1C(O)=C(C(N)=O)C(=O)[C@@]2(O)C(O)=C3C(=O)c4c(O)cccc4[C@@](C)(O)[C@H]3C[C@@H]12 [TET, Tetracycline] | 1.2 | 0.62 | 1.29 | 0.62 | 1.07 | 0.62 | 1.07 |  |  |  |  |  |  |  |  | 
FLGKVFKLASKVFKAVFGKV [R8] |  |  |  |  |  |  |  |  | 20 | 11.57 | 11.57 | 11.57 | 11.57 | 11.57 | 9.46 | 
GLRKRLRKFRNKIKEKLKKIGQKIQGFVPKLAPRTDY [CAP18, rabbit CAP18] |  |  |  |  |  |  |  |  | 120 | 24.11 | 24.11 | 20.09 | 24.11 | 24.11 | 24.11 | 
RRRPRPPYLPRPRPPPFFPPRLPPRIPPGFPPRFPPRFP [PR39] |  |  |  |  |  |  |  |  | 5 | 5.79 | 5.79 | 5.79 | 5.79 | 5.79 | 5.79 | 
TSSPPAAVVVRRRRRRRRRRRRRRRRRRR [PROA, protamine, cationic AMP purchased from Sigma-Aldrich] |  |  |  |  |  |  |  |  | 310 | 126.51 | 126.51 | 126.51 | 36.15 | 442.78 | 442.78 | isolated resistant mutants
